Data taken from US7642270B2, “5-oxo-5,8-dihydro-pyrido-pyrimidine as inhibitors of c-fms kinase” (Janssen Pharmaceutica N.V., priority 2005, dated 2010).

Tests used:
[1] = biological target: c-fms (Homo sapiens, UniProt P07333); assay: c-fms autophosphorylation, fluorescence polarization competition immunoassay; assay type: biochemical; details: 10 nM c-fms, 1 mM ATP, 5 mM MgCl2, 45 min room temperature; averages of three independent measurements; read-out: c-fms Autophosphorylation IC50
Method: Autophosphorylation, Fluorescence Polarization Competition Immunoassay
The assay buffer used was 100 mM 4-(2-hydroxyethyl)piperazine 1-ethanesulfonic acid (HEPES), pH 7.5, 1 mM 1,4-dithio-DL-threitol (DTT), 0.01% (v/v) Tween-20. Compounds were diluted in assay buffer containing 4% dimethylsulfoxide (DMSO) just prior to the assay. […] The kinase reaction was initiated by adding 2 μL of 5 mM ATP (Sigma) in assay buffer. The final concentrations in the assay were 10 nM c-fms, 1 mM ATP, 5 mM MgCl2, 2% DMSO. Control reactions were ran in each plate: in positive and negative control wells, assay buffer (made 4% in DMSO) was substituted for the compound; in addition, positive control wells received 1.2 μL of 50 mM ethylenediaminetetraaceticacid (EDTA).
The plates were incubated at room temperature for 45 min. At the end of the incubation, the reaction was quenched with 1.2 μL of 50 mM EDTA (EDTA was not added to the positive control wells at this point; see above). Following a 5-min incubation, each well received 10 μL of a 1:1:3 mixture of anti-phosphotyrosine antibody, 10×, PTK green tracer, 10× (vortexed), FP dilution buffer, respectively (all from PanVera, cat. # P2837). The plate was covered, incubated for 30 min at room temperature and the fluorescence polarization was read on the Analyst.
The IC50 values shown in Table 1 are averages of three independent measurements.

[2] = biological target: CSF-1R (Homo sapiens, UniProt P07333); assay: Peptide (non-phosphorylated) assay: fluorescence polarization competition immunoassay of CSF-1R phosphorylation of synthetic CSF-1R555-568 peptide; assay type: biochemical; details: 0.7 nM CSF-1R, 308 μM […], 1 mM ATP, 5 mM MgCl2, 80 min room temperature; mean of at least three determinations; read-out: c-fms Peptide IC50
Method: Peptide (Non-Phosphorylated) Assay
The kinase reaction was initiated by adding 1 μL of 10 mM ATP in assay buffer. […] Positive and negative control wells were included on each plate, where 4% DMSO in assay buffer was substituted for the compound; in addition, positive control wells received 1.2 μL of 50 mM EDTA before the start of the reaction.
The plates were covered and incubated at room temperature for 80 min. Reactions were stopped by addition of 1.2 μL of 50 mM EDTA. Each well then received 10 μL of a 1:1:3 mixture of 10× anti-phosphotyrosine antibody, 10×PTK green tracer, and FP dilution buffer, respectively (Cat. # P2837, Invitrogen, Carlsbad, Calif.). The plates were covered, incubated for 30 min at room temperature, and the fluorescence polarization was read on an Analyst plate reader (Molecular Devices).

Chain of CSF-1R (P07333 20-972): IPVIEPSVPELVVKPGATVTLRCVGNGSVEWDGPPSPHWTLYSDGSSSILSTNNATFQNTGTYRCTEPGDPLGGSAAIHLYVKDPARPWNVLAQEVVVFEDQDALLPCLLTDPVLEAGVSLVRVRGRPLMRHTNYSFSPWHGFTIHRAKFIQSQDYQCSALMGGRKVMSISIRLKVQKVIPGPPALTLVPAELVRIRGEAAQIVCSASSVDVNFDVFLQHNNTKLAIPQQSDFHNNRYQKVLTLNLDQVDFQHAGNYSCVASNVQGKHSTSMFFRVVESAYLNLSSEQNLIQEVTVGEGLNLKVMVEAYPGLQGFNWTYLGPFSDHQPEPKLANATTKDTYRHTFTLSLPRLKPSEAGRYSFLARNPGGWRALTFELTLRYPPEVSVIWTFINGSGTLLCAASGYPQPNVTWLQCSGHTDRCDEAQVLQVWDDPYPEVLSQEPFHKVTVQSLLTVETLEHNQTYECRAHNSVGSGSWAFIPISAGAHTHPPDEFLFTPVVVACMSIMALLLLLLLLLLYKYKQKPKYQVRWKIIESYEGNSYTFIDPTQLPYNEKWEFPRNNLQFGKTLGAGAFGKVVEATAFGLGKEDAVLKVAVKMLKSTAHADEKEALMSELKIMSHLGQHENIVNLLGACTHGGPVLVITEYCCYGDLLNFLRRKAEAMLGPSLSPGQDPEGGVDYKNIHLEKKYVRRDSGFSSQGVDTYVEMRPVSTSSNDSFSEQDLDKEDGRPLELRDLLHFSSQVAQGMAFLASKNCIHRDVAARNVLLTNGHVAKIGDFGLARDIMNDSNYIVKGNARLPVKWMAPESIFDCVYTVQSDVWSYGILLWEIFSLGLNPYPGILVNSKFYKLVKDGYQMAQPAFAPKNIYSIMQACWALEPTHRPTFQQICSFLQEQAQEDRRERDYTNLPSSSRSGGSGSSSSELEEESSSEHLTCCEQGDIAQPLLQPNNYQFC
Chain of c-fms (P07333 20-972): as above

CNC(=O)c1cn(-c2ccc3c(c2)CCC3)c2nc(Nc3ccc(CCN4CCOCC4)cc3)ncc2c1=O [Cpd 28, 8-Indan-5-yl-2-[4-(2-morpholin-4-yl-ethyl)-phenylamino]-5-oxo-5,8-dihydro-pyrido[2,3-d]pyrimidine-6-carboxylic acid methyl amide] gave an IC50 [1] of 30 nM and an IC50 [2] of 1.6 nM.

CNC(=O)c1cn(-c2ccc3c(c2)CCC3)c2nc(Nc3ccc(CCN4CCN(C)CC4)cc3)ncc2c1=O [Cpd 47, 8-Indan-5-yl-2-{4-[2-(4-methyl-piperazin-1-yl)-ethyl]-phenylamino}-5-oxo-5,8-dihydro-pyrido[2,3-d]pyrimidine-6-carboxylic acid methyl amide] showed an IC50 [1] of 15 nM and an IC50 [2] of 1.3 nM.

CN1CCN(Cc2cccc(Nc3ncc4c(=O)c(C(N)=O)cn(-c5ccc6c(c5)CCC6)c4n3)c2)CC1 [Cpd 23, 8-Indan-5-yl-2-[3-(4-methyl-piperazin-1-ylmethyl)-phenylamino]-5-oxo-5,8-dihydro-pyrido[2,3-d]pyrimidine-6-carboxylic acid amide] gave an IC50 [1] of 14 nM and an IC50 [2] of 1.5 nM.

With CN1CCN(c2ccc(Nc3ncc4c(=O)c(C(N)=O)cn(-c5ccc6c(c5)CCC6)c4n3)cc2)CC1 [Cpd 7, 8-Indan-5-yl-2-[4-(4-methyl-piperazin-1-yl)-phenylamino]-5-oxo-5,8-dihydro-pyrido[2,3-d]pyrimidine-6-carboxylic acid amide] the IC50 [1] was 13 nM and the IC50 [2] was 3.9 nM.

CNC(=O)c1cn(-c2ccc3c(c2)CCC3)c2nc(Nc3ccc(C4CCNCC4)cc3)ncc2c1=O [Cpd 50, 8-Indan-5-yl-5-oxo-2-(4-piperidin-4-yl-phenylamino)-5,8-dihydro-pyrido[2,3-d]pyrimidine-6-carboxylic acid methyl amide] gave an IC50 [1] of 15 nM and an IC50 [2] of 0.97 nM.

Work on CNC(=O)c1cn(-c2ccc3c(c2)CCC3)c2nc(Nc3ccc(N4CC(C)NC(C)C4)cc3)ncc2c1=O (centres unmarked) [Cpd 44, 2-[4-(3,5-Dimethyl-piperazin-1-yl)-phenylamino]-8-indan-5-yl-5-oxo-5,8-dihydro-pyrido[2,3-d]pyrimidine-6-carboxylic acid methyl amide] yielded an IC50 [1] of 8 nM and an IC50 [2] of 0.53 nM.

CNC(=O)c1cn(-c2ccc3c(c2)CCC3)c2nc(Nc3cccc(N4CCNCC4)c3)ncc2c1=O [Cpd 53, 8-Indan-5-yl-5-oxo-2-(3-piperazin-1-yl-phenylamino)-5,8-dihydro-pyrido[2,3-d]pyrimidine-6-carboxylic acid methyl amide] was tested, and the IC50 [1] was 8 nM and the IC50 [2] was 0.46 nM.

Work on CNC(=O)c1cn(-c2ccc3c(c2)CCC3)c2nc(Nc3ccc(OCC(O)CN(C)C)cc3)ncc2c1=O (centres unmarked) [Cpd 11, 2-[4-(3-Dimethylamino-2-hydroxy-propoxy)-phenylamino]-8-indan-5-yl-5-oxo-5,8-dihydro-pyrido[2,3-d]pyrimidine-6-carboxylic acid methylamide] yielded an IC50 [1] of 46 nM and an IC50 [2] of 5.6 nM.

NC(=O)c1cn(-c2ccc3c(c2)CCC3)c2nc(Nc3ccc(C4CCNCC4)cc3)ncc2c1=O [Cpd 49, 8-Indan-5-yl-5-oxo-2-(4-piperidin-4-yl-phenylamino)-5,8-dihydro-pyrido[2,3-d]pyrimidine-6-carboxylic acid amide] showed an IC50 [1] of 8 nM and an IC50 [2] of 0.49 nM.

Compound CCNC(=O)c1cn(-c2ccc3c(c2)CCC3)c2nc(Nc3cccc(N4CCNCC4)c3)ncc2c1=O [Cpd 54, 8-Indan-5-yl-5-oxo-2-(3-piperazin-1-yl-phenylamino)-5,8-dihydro-pyrido[2,3-d]pyrimidine-6-carboxylic acid ethyl amide] has an IC50 [1] of 11 nM and an IC50 [2] of 1.1 nM.

CC1CN(c2cccc(Nc3ncc4c(=O)c(C(N)=O)cn(-c5ccc6c(c5)CCC6)c4n3)c2)CC(C)N1 (centres unmarked) [Cpd 55, 2-[3-(3,5-Dimethyl-piperazin-1-yl)-phenylamino]-8-indan-5-yl-5-oxo-5,8-dihydro-pyrido[2,3-d]pyrimidine-6-carboxylic acid amide] gave an IC50 [1] of 6 nM and an IC50 [2] of 0.51 nM.

In the case of CN(C)c1cccc(Nc2ncc3c(=O)c(C(N)=O)cn(-c4ccc5c(c4)CCC5)c3n2)c1 [Cpd 16, 2-(3-Dimethylamino-phenylamino)-8-indan-5-yl-5-oxo-5,8-dihydro-pyrido[2,3-d]pyrimidine-6-carboxylic acid amide], the IC50 [1] is reported as 12 nM and the IC50 [2] is reported as 4.3 nM.

Compound CC1CN(c2ccc(Nc3ncc4c(=O)c(C(N)=O)cn(-c5ccc6c(c5)CCC6)c4n3)cc2)CC(C)N1 (centres unmarked) [Cpd 43, 2-[4-(3,5-Dimethyl-piperazin-1-yl)-phenylamino]-8-indan-5-yl-5-oxo-5,8-dihydro-pyrido[2,3-d]pyrimidine-6-carboxylic acid amide] has an IC50 [2] of 0.58 nM.

Work on NC(=O)c1cn(-c2ccc3c(c2)CCC3)c2nc(Nc3cccc(N4CCNCC4)c3)ncc2c1=O [Cpd 52, 8-Indan-5-yl-5-oxo-2-(3-piperazin-1-yl-phenylamino)-5,8-dihydro-pyrido[2,3-d]pyrimidine-6-carboxylic acid amide] yielded an IC50 [1] of 5 nM and an IC50 [2] of 0.42 nM.

Compound CN(C)CC(O)COc1ccc(Nc2ncc3c(=O)c(C(N)=O)cn(-c4ccc5c(c4)CCC5)c3n2)cc1 (centres unmarked) [Cpd 10, 2-[4-(3-Dimethylamino-2-hydroxy-propoxy)-phenylamino]-8-indan-5-yl-5-oxo-5,8-dihydro-pyrido[2,3-d]pyrimidine-6-carboxylic acid amide] has an IC50 [1] of 13 nM and an IC50 [2] of 2.7 nM.

CCNC(=O)c1cn(-c2ccc3c(c2)CCC3)c2nc(Nc3cccc(C(=O)N(C)C)c3)ncc2c1=O [Cpd 81, 2-(3-Dimethylcarbamoyl-phenylamino)-8-indan-5-yl-5-oxo-5,8-dihydro-pyrido[2,3-d]pyrimidine-6-carboxylic acid ethylamide] was tested, and the IC50 [1] was 110 nM.

Compound CNC(=O)c1cn(-c2ccc3c(c2)CCC3)c2nc(Nc3cccc(C(=O)N(C)C)c3)ncc2c1=O [Cpd 80, 2-(3-Dimethylcarbamoyl-phenylamino)-8-indan-5-yl-5-oxo-5,8-dihydro-pyrido[2,3-d]pyrimidine-6-carboxylic acid methylamide] has an IC50 [1] of 74 nM.

In the case of CNC(=O)c1cn(-c2ccc3c(c2)CCC3)c2nc(Nc3cccc(N4CC(C)NC(C)C4)c3)ncc2c1=O (centres unmarked) [Cpd 56, 2-[3-(3,5-Dimethyl-piperazin-1-yl)-phenylamino]-8-indan-5-yl-5-oxo-5,8-dihydro-pyrido[2,3-d]pyrimidine-6-carboxylic acid methyl amide], the IC50 [1] is reported as 10 nM and the IC50 [2] is reported as 1.1 nM.

Work on CCOC(=O)c1cn(-c2ccc3c(c2)CCC3)c2nc(Nc3ccc(N4CCN(C)CC4)cc3)ncc2c1=O [Cpd 1, 8-Indan-5-yl-2-[4-(4-methyl-piperazin-1-yl)-phenylamino]-5-oxo-5,8-dihydro-pyrido[2,3-d]pyrimidine-6-carboxylic acid ethyl ester] yielded an IC50 [1] of 280 nM.

NC(=O)c1cn(-c2ccc3c(c2)CCC3)c2nc(Nc3ccc(C[C@H]4COC(=O)N4)cc3)ncc2c1=O [Cpd 30, (4S)-8-Indan-5-yl-5-oxo-2-[4-(2-oxo-oxazolidin-4-ylmethyl)-phenylamino]-5,8-dihydro-pyrido[2,3-d]pyrimidine-6-carboxylic acid amide] showed an IC50 [1] of 12 nM.
